IC50 data for eleven compounds are collected here from US20250188075A1, “SUBSTITUTED HETEROCYCLIC CSNK1 INHIBITORS” (The Broad Institute, Inc., priority 2022, published 2025).

In one experiment the target is human CSNK1G3 (Homo sapiens (Human), UniProt Q9Y6M4). As to the kind of experiment: CSNK1G3 assay (ADP-Glo). The class given is biochemical. As to conditions: median, read-out: CSNK1G IC50 [mol/l] (median). As to the method:
CSNK1G3-inhibitory activity of compounds of the present invention in presence of 1 μM adenosine-tri-phosphate (ATP) was quantified employing the CSNK1G3 assay as described in the following paragraphs. In essence, the enzyme activity is measured by quantification of the adenosine-di-phosphate (ADP), which is generated as a co-product of the enzyme reaction, via the “ADP-Glo™ Kinase Assay” kit from the company Promega. This detection system works as follows: In a first step the ATP not consumed in the kinase reaction is quantitatively converted to CAMP employing an adenylate cyclase (“ADP-Glo-reagent”), then the adenylate cyclase is stopped and the ADP generated in the kinase reaction converted to ATP which generates in a luciferase-based reaction a glow-luminescence signal (“Kinase Detection Reagent”).
Recombinant fusion protein of N-terminal Glutathion-S-Transferase (GST) and full-length human CSNK1G3, expressed by baculovirus infected insect cells and purified via Glutathion affinity chromatography, was purchased from Life Technologies (product no. PV3838) and used as enzyme. As substrate for the kinase reaction the biotinylated peptide biotin-Ahx-KRRRAL-pS-VASLPGL (C-terminus in amide form) was used which can be purchased e.g. from the company Biosyntan (Berlin-Buch, Germany).
For the assay 50 nl of a 100 fold concentrated solution of the test compound in DMSO was pipetted into a white 1536-well microtiter plate (Greiner Bio-One, Frickenhausen, Germany), 2 μL of a solution of CSNK1G3 in aqueous assay buffer [50 mM HEPES pH 7.5, 10% (v/v) glycerol, 10 mM MgCl2, 50 mM NaCl, 1 mM dithiothreitol, 0.01% (w/v) bovine serum albumin, 0.01% (v/v) Triton X-100] were added and the mixture was incubated for 15 min at 22° C. to allow pre-binding of the test compounds to the enzyme before the start of the kinase reaction. Then the kinase reaction was started by the addition of 3 μL of a solution of ATP ([…]=>final conc. in the 5 μL assay volume is 1 M) and peptide substrate (50 μM=>final conc. in the 5 μL assay volume is 30 μM) in assay buffer and the resulting mixture was incubated for a reaction time of 30 min at 22° C. The concentration of CSNK1G3 was adjusted depending of the activity of the enzyme lot and was chosen appropriate to have the assay in the linear range, a typical concentration is about 0.06 ng/μL. The reaction was stopped by the addition of 2.5 μL of “ADP-Glo-reagent” (1:1.5 fold diluted with water) and the resulting mixture was incubated at 22° C. for 1 h to convert the ATP not consumed in the kinase reaction completely to CAMP. Subsequently 2.5 μL of the “kinase detection reagent” (1.2 fold more concentrated than recommended by the producer) were added, the resulting mixture was incubated at 22° C. for 1 h and then the luminescence measured with a suitable measurement instrument (e.g. Viewlux™ from Perkin-Elmer). The amount of emitted light was taken as a measure for the amount of ADP generated and thereby for the activity of the CSNK1G3.
(§1) The data were normalised (enzyme reaction without inhibitor=0% inhibition, all other assay components but no enzyme=100% inhibition).

A further experiment deals with human CSNK1D (Homo sapiens (Human), UniProt P48730). Description: CSNK1D assay (ADP-Glo, 1 μM ATP). It counts as biochemical. To be noted: median, read-out: CSNK1D IC50 [mol/l] (median). Here is the method:
CSNK1D-inhibitory activity of compounds of the present invention in presence of 1 μM adenosine-tri-phosphate (ATP) was quantified employing the CSNK1D assay as described in the following paragraphs. In essence, the enzyme activity is measured by quantification of the adenosine-di-phosphate (ADP), which is generated as a co-product of the enzyme reaction, via the “ADP-Glo™ Kinase Assay” kit from the company Promega. This detection system works as follows: In a first step the ATP not consumed in the kinase reaction is quantitatively converted to CAMP employing an adenylate cyclase (“ADP-Glo-reagent”), then the adenylate cyclase is stopped and the ADP generated in the kinase reaction converted to ATP which generates in a luciferase-based reaction a glow-luminescence signal (“Kinase Detection Reagent”).
Recombinant fusion protein of N-terminal Glutathion-S-Transferase (GST) and full-length human CSNK1D, expressed by baculovirus infected insect cells and purified via Glutathion affinity chromatography, was purchased from Life Technologies (product no. PV3665) and used as enzyme. As substrate for the kinase reaction the biotinylated peptide Btn-Ahx-SGSEGDSESGEEEG (C-terminus in amide form) was used which can be purchased e.g. from the company Biosyntan (Berlin-Buch, Germany).
For the assay 50 nl of a 100-fold concentrated solution of the test compound in DMSO was pipetted into a white 1536-well microtiter plate (Greiner Bio-One, Frickenhausen, Germany), 2 μL of a solution of CSNK1D in aqueous assay buffer [50 mM HEPES pH 7.5, 10% (v/v) glycerol, 10 mM MgCl2, 50 mM NaCl, 1 mM dithiothreitol, 0.01% (w/v) bovine serum albumin, 0.01% (v/v) Triton X-100] were added and the mixture was incubated for 15 min at 22° C. to allow pre-binding of the test compounds to the enzyme before the start of the kinase reaction. Then the kinase reaction was started by the addition of 3 μL of a solution of ATP (1.67 μM=>final conc. in the 5 μL assay volume is 1 μM) and peptide substrate (50 μM=>final conc. in the 5 μL assay volume is 30 μM) in assay buffer and the resulting mixture was incubated for a reaction time of 30 min at 22° C. The concentration of CSNK1D was adjusted depending of the activity of the enzyme lot and was chosen appropriate to have the assay in the linear range, a typical concentration is about 0.5 ng/μL. The reaction was stopped by the addition of 2.5 μL of “ADP-Glo-reagent” (1:1.5 fold diluted with water) and the resulting mixture was incubated at 22° C. for 1 h to convert the ATP not consumed in the kinase reaction completely to CAMP. Subsequently 2.5 μL of the “kinase detection reagent” (1.2 fold more concentrated than recommended by the producer) were added, the resulting mixture was incubated at 22° C. for 1 h and then the luminescence measured with a suitable measurement instrument (e.g. Viewlux™ from Perkin-Elmer). The amount of emitted light was taken as a measure for the amount of ADP generated and thereby for the activity of the CSNK1D.
as §1

pIC50: −log10 of the molar value.

Chain of human CSNK1G3 (Q9Y6M4 whole entry): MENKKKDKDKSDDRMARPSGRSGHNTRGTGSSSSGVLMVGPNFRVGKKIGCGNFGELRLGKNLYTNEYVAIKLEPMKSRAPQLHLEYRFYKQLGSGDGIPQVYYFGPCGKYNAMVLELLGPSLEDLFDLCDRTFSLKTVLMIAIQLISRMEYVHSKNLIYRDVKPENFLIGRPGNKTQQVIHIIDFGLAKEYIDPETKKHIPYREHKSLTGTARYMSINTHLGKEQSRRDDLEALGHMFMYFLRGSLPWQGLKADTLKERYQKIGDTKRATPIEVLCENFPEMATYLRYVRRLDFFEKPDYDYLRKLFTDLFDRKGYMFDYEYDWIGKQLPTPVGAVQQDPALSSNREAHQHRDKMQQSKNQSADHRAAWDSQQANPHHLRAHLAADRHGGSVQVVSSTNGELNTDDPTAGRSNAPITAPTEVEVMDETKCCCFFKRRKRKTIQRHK
Chain of human CSNK1D (P48730 whole entry): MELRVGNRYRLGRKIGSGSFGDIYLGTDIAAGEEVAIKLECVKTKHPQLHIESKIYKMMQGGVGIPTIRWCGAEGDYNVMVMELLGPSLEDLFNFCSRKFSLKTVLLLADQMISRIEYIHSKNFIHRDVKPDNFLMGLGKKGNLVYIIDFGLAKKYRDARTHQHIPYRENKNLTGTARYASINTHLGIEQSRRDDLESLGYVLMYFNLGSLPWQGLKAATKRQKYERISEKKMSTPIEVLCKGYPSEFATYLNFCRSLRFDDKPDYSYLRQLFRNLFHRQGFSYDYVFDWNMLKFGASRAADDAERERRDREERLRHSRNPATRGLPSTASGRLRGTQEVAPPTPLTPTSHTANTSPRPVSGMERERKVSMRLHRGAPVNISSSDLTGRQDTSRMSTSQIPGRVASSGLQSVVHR

Turning to `O=C(Nc1cc(-c2[nH]c3ccc(F)nc3c2-c2ccccn2)ccn1)[C@@H](CC(F)F)c1ccc(F)cc1` [Example C2, reference compound], the pIC50 on human CSNK1G3 is 8.62; at human CSNK1D it was 8.65.

For `Cn1cc(CC(=O)Nc2cc(-c3[nH]c4cccnc4c3-c3ccccn3)ccn2)cn1` [Example 2, 2-(1-methylpyrazol-4-yl)-N-[4-[3-(2-pyridyl)-^1H-pyrrolo[3,2-b]pyridin-2-yl]-2-pyridyl]acetamide], the pIC50 on human CSNK1G3 is 6.99; on human CSNK1D, 7.95.

Regarding `Cn1cc(C(CC(F)F)C(=O)Nc2cc(-c3[nH]c4cccnc4c3-c3ccccn3)ccn2)cn1` (stereo not shown) [Example 19, 4,4-difluoro-2-(1-methylpyrazol-4-yl)-N-[4-[3-(2-pyridyl)-^1H-pyrrolo[3,2-b]pyridin-2-yl]-2-pyridyl]butanamide], the pIC50 on human CSNK1G3 is 7.20; on human CSNK1D, 7.86.

On to `Cc1nocc1CC(=O)Nc1cc(-c2[nH]c3cccnc3c2-c2ccccn2)ccn1` [Example 30, 2-(3-methylisoxazol-4-yl)-N-[4-[3-(2-pyridyl)-^1H-pyrrolo[3,2-b]pyridin-2-yl]-2-pyridyl]acetamide], for which the pIC50 at human CSNK1G3 is 7.16; on human CSNK1D, 8.17.

On to `Cc1ocnc1CC(=O)Nc1cc(-c2[nH]c3cccnc3c2-c2ccccn2)ccn1` [Example 11, 2-(5-methyloxazol-4-yl)-N-[4-[3-(2-pyridyl)-^1H-pyrrolo[3,2-b]pyridin-2-yl]-2-pyridyl]acetamide], for which the figures for the pIC50 on human CSNK1G3 and on human CSNK1D were 6.92 and 8.09, respectively.

For the compound `Cc1nn(C)cc1CC(=O)Nc1cc(-c2[nH]c3cccnc3c2-c2ccccn2)ccn1` [Example 9, 2-(1,3-dimethylpyrazol-4-yl)-N-[4-[3-(2-pyridyl)-^1H-pyrrolo[3,2-b]pyridin-2-yl]-2-pyridyl]acetamide], the pIC50 was 7.29 at human CSNK1G3 and 8.25 on human CSNK1D.

For the compound `O=C(Cc1ccn(CC(F)(F)F)n1)Nc1cc(-c2[nH]c3cccnc3c2-c2ccccn2)ccn1` [Example 20, N-[4-[3-(2-pyridyl)-^1H-pyrrolo[3,2-b]pyridin-2-yl]-2-pyridyl]-2-[1-(2,2,2-trifluoroethyl)pyrazol-3-yl]acetamide], the pIC50 at human CSNK1G3 is 7.83; on human CSNK1D it was 8.31.

With `Cc1cc(CC(=O)Nc2cc(-c3[nH]c4cccnc4c3-c3ccccn3)ccn2)no1` [Example 26, 2-(5-methylisoxazol-3-yl)-N-[4-[3-(2-pyridyl)-^1H-pyrrolo[3,2-b]pyridin-2-yl]-2-pyridyl]acetamide], the pIC50 on human CSNK1G3 is 7.58; at human CSNK1D, 8.18.

`O=C(Nc1cc(-c2[nH]c3nccnc3c2-c2ccccn2)ccn1)[C@@H](CC(F)F)c1ccc(F)cc1` [Example C1, reference compound]: the pIC50 at human CSNK1G3 is 8.18; at human CSNK1D, 8.41.

On to `O=C(Cc1cnc2ccccn12)Nc1cc(-c2[nH]c3cccnc3c2-c2ccccn2)ccn1` [Example 1, 2-imidazo[1,2-a]pyridin-3-yl-N-[4-[3-(2-pyridyl)-^1H-pyrrolo[3,2-b]pyridin-2-yl]-2-pyridyl]acetamide], for which the figures for the pIC50 on human CSNK1G3 and on human CSNK1D were 7.14 and 7.94, respectively.

For the compound `Cc1nc(C)c(CC(=O)Nc2cc(-c3[nH]c4cccnc4c3-c3ccccn3)ccn2)s1` [Example 18, 2-(2,4-dimethylthiazol-5-yl)-N-[4-[3-(2-pyridyl)-^1H-pyrrolo[3,2-b]pyridin-2-yl]-2-pyridyl]acetamide], the pIC50 at human CSNK1G3 is 7.81; at human CSNK1D, 8.42.
